Measurements: patent publication US20260183405A1, “SMALL MOLECULE-DRUG-CONJUGATES CLEAVABLE IN A TUMOR MICROENVIRONMENT” (priority 2022, published 2026)
Like-named read-outs stand apart in the source and are kept apart here. Starred links: 1 amine or outer side, 2 acyl side, 3 side chain; linkers in the order of their positions; H or OH if unused. Non-standard residues stand in square brackets, D forms with d. Residues, ends and D or L forms follow the SMILES beside them. Groups on a side chain read outwards from the residue. *: point of attachment. Camptothecin(7-Et) = CCc1c2c(nc3ccccc13)-c1cc3c(c(=O)n1C2)COC(=O)[C@@]3(CC)O*; EuK = O=C(O)CC[C@H](NC(=O)N[C@@H](CCCCN*)C(=O)O)C(=O)O; Deacetylacetazolamide = NS(=O)(=O)c1nnc(N*)s1; Suc = O=C(CCC(=O)[*:2])[*:1]; PEG3 = NCCOCCOCCOCCC(=O)O; CO = O=C([*:1])[*:2]

Columns and labels:
in vitro = conditions: human, Caco-2
Experimental: (§1) Caco-2: The cell permeability of a substance can be investigated by means of in vitro testing in a flux assay using Caco-2 cells [M. D. Troutman and D. R. Thakker, Pharm. Res. 20 (8), 1210-1224 (2003)]. For this purpose, the cells were cultured for 15-16 days on 24-well filter plates. For the determination of permeation, the respective test substance was applied in a HEPES buffer to the cells either apically (A) or basally (B) and incubated for 2 hours. After 0 hours and after 2 hours, samples were taken from the cis and trans compartments. The samples were separated by HPLC (Agilent 1200, Böblingen, Germany) using reverse phase columns. The HPLC system was coupled via a Turbo Ion Spray Interface to a Triple Quadropol mass spectrometer API 4000 (AB SCIEX Deutschland GmbH, Darmstadt, Germany). The permeability was evaluated on the basis of a Papp value, which was calculated using the formula published by Schwab et al. [D. Schwab et al., J. Med. Chem. 46, 1716-1725 (2003)]. A substance was classified as actively transported when the ratio of Papp (B-A) to Papp (A-B) (efflux ratio) was >2 or <0.5. […] In Table 2, reference compounds are provided for comparison.

Caco-2 cells = assay: Caco-2 flux assay for cellular permeability; conditions: for Caco-2 Flux Papp A-B [nm/s]: Caco-2 cells, apical to basal, 2 hours incubation; for Caco-2 Flux Efflux ratio: ratio Papp (B-A) to Papp (A-B), actively transported when >2 or <0.5, 0.5-2 not actively transported
Experimental: as §1

[1] = Pharmacokinetics in rat after intravenous administration; format: in vivo; conditions: plasma, male rats, intravenous bolus 0.5 mg/kg
Experimental: Male rats (n=3) were given an intravenous 0.5 mg/kg bolus dose of test article dissolved in plasma with 1% DMSO and 2% ethanol. Serial blood samples were collected up to 24 hours post-dose. Plasma was harvested from blood samples and stored frozen until sample analysis. Test article plasma concentrations were analyzed by LC/MS/MS. Pharmacokinetic parameters were calculated using non-compartmental analysis.

786-O = assay: Cytotoxicity in vitro in the presence and absence of elastase (MTT assay); format: cell-based; conditions: 786-O cells, 72 h incubation
Experimental: (§2) Cultivation of cells was performed according to standard procedures with the media recommended by the provider. The cells, in a total volume of 100 μL, were seeded in a 96-well plate with a white bottom (#3610). After a 24 h incubation period at 37° C. and 5% CO2, the medium was exchanged by adding 90 μL fresh medium. The treatment started by adding the test compound in 10 μL of culture medium to the cells in triplicates. Concentrations ranging from 10^−5 M to 10^−13 M were chosen. Two identically treated sets of samples were prepared. One set was treated with the test compound alone, whereas to the second set the compound and 10 nM elastase (NE) was added followed by a 72 h incubation period at 37° C. and 5% CO2. The proliferation was detected using the MTT assay (ATCC). At the end of the incubation period the MTT reagent was added to all samples for 4h. Lysis of the cells followed by addition of the detergent was done overnight. The formed dye was detected at 570 nm. The proliferation of untreated but otherwise identically handled cells was defined as the 100% value. The dose response curves allowed the determination of the respective IC50 values. […]

NCI-H292 = assay: as above; format: cell-based; conditions: NCI-H292 cells, 72 h incubation
Experimental: as §2

SUM149PT = assay: as above; format: cell-based; conditions: SUM149PT cells, 72 h incubation
Experimental: as §2

HT29 = assay: as above; format: cell-based; conditions: HT29 cells, 72 h incubation
Experimental: as §2

[2] = compound alone, read-out: IC50 without neutrophil elastase
[3] = with 10 nM elastase (NE), read-out: IC50 with neutrophil elastase

| Molecule | Papp A→B at 2 h (in vitro) | efflux ratio at 2 h (in vitro) | IC50 (786-O; [2]) | IC50 (786-O; [3]) | IC50 (NCI-H292; [2]) | IC50 (NCI-H292; [3]) | IC50 (SUM149PT; [2]) | IC50 (SUM149PT; [3]) | IC50 (HT29; [2]) | IC50 (HT29; [3]) | further results |
| --- | --- | --- | --- | --- | --- | --- | --- | --- | --- | --- | --- |
| COC(=O)[C@@H](N)CCN(C(=O)CO)[C@@H](c1cc(-c2cc(F)ccc2F)cn1Cc1ccccc1)C(C)(C)C | 1 to 9.9 ×10⁻⁶ cm/s | > 2 | – | – | – | – | – | – | – | – | – |
| CC(C)(C)[C@H](c1cc(-c2cc(F)ccc2F)cn1Cc1ccccc1)N(CCCN)C(=O)CO | 0.1 to 0.9 ×10⁻⁶ cm/s | > 2 | – | – | – | – | – | – | – | – | – |
| CC[C@@]1(O)C(=O)OCc2c1cc1n(c2=O)Cc2c-1nc1cc(F)c(C)c3c1c2[C@@H](NC(=O)CO)CC3 [Ref 2, DXd, reference compound] | – | – | – | – | – | – | – | – | – | – | Caco-2 Flux Papp A-B [nm/s] (Caco-2 cells): AA (AA = 1-9 nm/s); Caco-2 Flux Efflux ratio (Caco-2 cells): A (A = actively transported) |
| CCCNC(=O)Nc1cccc(S(=O)(=O)Nc2cccc([C@@H](CC(=O)O)NC(=O)Nc3ccc(NC(=O)NCCOCCOCCOCCC(=O)NCCCC[C@H](NC(=O)CCOCCOCCOCCNC(=O)Nc4ccc(NC(=O)N[C@H](CC(=O)O)c5cccc(NS(=O)(=O)c6cccc(NC(=O)NCCC)c6)c5)cc4)C(=O)NCCOCCOCCOCCC(=O)N[C@@H](CC(=O)O)C(=O)N4CCC[C@H]4C(=O)N[C@H](C(=O)O[C@@H](c4ccccc4)[C@@H](C)NC(=O)[C@H](C)[C@@H](OC)[C@@H]4CCCN4C(=O)C[C@@H](OC)[C@H]([C@@H](C)CC)N(C)C(=O)[C@@H](NC(=O)[C@@H](NC)C(C)C)C(C)C)C(C)C)cc3)c2)c1 [Compound 14] | – | – | 100 to 999 nM | 1 to 9.9 nM | 10 to 99 nM | 0.1 to 1 nM | 10 to 99 nM | 0.1 to 1 nM | 100 to 999 nM | 0.1 to 1 nM | AUC [1]: 100 to 500 µg·h/mL; half-life [1]: 10 to 40 h; clearance ([1]; read-out: CL plasma): 0.02 to 0.5 mL/min/kg; Vd ([1]; read-out: VSS): 0.1 to 0.3 L/kg |
| CC[C@@]1(O)C(=O)OCc2c1cc1n(c2=O)Cc2cc3cc4c(cc3nc2-1)OCO4 [Ref 3, 10,11-methylenedioxy-camptothecin, reference compound] | – | – | – | – | – | – | – | – | – | – | Caco-2 Flux Papp A-B [nm/s] (Caco-2 cells): CC (CC = 100-999 nm/s); Caco-2 Flux Efflux ratio (Caco-2 cells): B (B = not actively transported) |
| CC(C)(C)[C@H](c1cc(-c2cc(F)ccc2F)cn1Cc1ccccc1)N(CCC(N)C(F)F)C(=O)CO (stereo partly shown) | 10 to 99.9 ×10⁻⁶ cm/s | 0.5 to 2 | – | – | – | – | – | – | – | – | – |
| exatecan mesylate [Ref 1, reference compound] | – | – | – | – | – | – | – | – | – | – | Caco-2 Flux Papp A-B [nm/s] (Caco-2 cells): CC (CC = 100-999 nm/s); Caco-2 Flux Efflux ratio (Caco-2 cells): B (B = not actively transported) |
| CCc1c2c(nc3ccccc13)-c1cc3c(c(=O)n1C2)COC(=O)[C@]3(O)CC | 10 to 99.9 ×10⁻⁶ cm/s | 0.5 to 2 | – | – | – | – | – | – | – | – | – |
| CCc1c2c(nc3ccccc13)-c1cc3c(c(=O)n1C2)COC(=O)[C@@]3(CC)OC(=O)[C@@H](NC(=O)[C@@H]1CCCN1C(=O)[C@H](CC(=O)O)NC(=O)CCOCCOCCOCCNC(=O)[C@H](CCCCNC(=O)CCOCCOCCOCCNC(=O)CCC(=O)Nc1nnc(S(N)(=O)=O)s1)NC(=O)CCOCCOCCOCCNC(=O)CCC(=O)Nc1nnc(S(N)(=O)=O)s1)C(C)C [Compound 8, sodium (4S)-4,11-diethyl-3,14-dioxo-3,4,12,14-tetrahydro-1H-pyrano[3′,4′:6,7]indolizino[1,2-b]quinolin-4-yl 1-[(2S)-15-[(N2,N6-bis{14,17-dioxo-17-[(5-sulfamoyl-1,3,4-thiadiazol-2-yl)amino]-4,7,10-trioxa-13-azaheptadecanan-1-oyl}-L-lysyl)amino]-2-(carboxylatomethyl)-4-oxo-7,10,13-trioxa-3-azapentadecanan-1-oyl]-L-prolyl-L-valinate] ({Deacetylacetazolamide-Suc-PEG3}-K([PEG3-Suc-Deacetylacetazolamide])[PEG3]DPV-{Camptothecin(7-Et)}) | – | – | > 1000 nM | 10 to 99 nM | > 1000 nM | 10 to 99 nM | > 1000 nM | 10 to 99 nM | > 1000 nM | 10 to 99 nM | – |
| N2-(14-{4-[({(1R)-2-carboxy-1-[3-({3-[(propylcarbamoyl)amino]benzene-1-sulfonyl}amino)phenyl]ethyl}carbamoyl)amino]anilino}-14-oxo-4,7,10-trioxa-13-azatetradecanan-1-oyl}-L-asparaginyl-L-prolyl-N-{3-[{(1R)-1-[1-benzyl-4-(2,5-difluorophenyl)-1H-pyrrol-2-yl]-2,2-dimethylpropyl}(hydroxyacetyl)amino]propyl}-L-alaninamide [Compound 15] | – | – | > 1000 nM | 10 to 99 nM | 100 to 999 nM | 10 to 99 nM | 10 to 99 nM | 1 to 9.9 nM | 100 to 999 nM | 1 to 9.9 nM | – |
| CCc1c2c(nc3ccccc13)-c1cc3c(c(=O)n1C2)COC(=O)[C@@]3(CC)OC(=O)[C@@H](NC(=O)[C@@H]1CCCN1C(=O)[C@H](CC(=O)O)NC(=O)CCOCCOCCOCCNC(=O)[C@H](CCCCNC(=O)CCOCCOCCOCCNC(=O)NCCCC[C@H](NC(=O)N[C@@H](CCC(=O)O)C(=O)O)C(=O)O)NC(=O)CCOCCOCCOCCNC(=O)NCCCC[C@H](NC(=O)N[C@@H](CCC(=O)O)C(=O)O)C(=O)O)C(C)C [Compound 7, heptasodium (4S)-4,11-diethyl-3,14-dioxo-3,4,12,14-tetrahydro-1H-pyrano[3′,4′:6,7]indolizino[1,2-b]quinolin-4-yl 1-[(2S)-15-{[N2,N6-bis(3S,7S)(1,3,7-tricarboxylato-5,13,26-trioxo-17,20,23-trioxa-4,6,12,14-tetraazahexacosan-26-yl)-L-lysyl]amino}-2-(carboxylatomethyl)-4-oxo-7,10,13-trioxa-3-azapentadecanan-1-oyl]-L-prolyl-L-valinate] ({EuK-CO-PEG3}-K([PEG3-CO-EuK])[PEG3]DPV-{Camptothecin(7-Et)}) | – | – | 100 to 999 nM | 1 to 9.9 nM | 100 to 999 nM | 1 to 9.9 nM | 100 to 999 nM | 1 to 9.9 nM | > 1000 nM | 10 to 99 nM | – |
| CC(C)[C@H](NC(=O)[C@@H]1CCCN1C(=O)[C@H](CC(=O)O)NC(=O)CCOCCOCCOCCNC(=O)CCC(=O)Nc1nnc(S(N)(=O)=O)s1)C(=O)N=[S@](C)(=O)Cc1cc2nc(c1)OCCCOc1cc(F)ccc1-c1cc(ncc1F)N2 (relative stereo) [Compound 10, sodium 1-{(2S)-2-(carboxylatomethyl)-4,17,20-trioxo-20-[(5-sulfamoyl-1,3,4-thiadiazol-2-yl)amino]-7,10,13-trioxa-3,16-diazaicosanan-1-oyl}-L-prolyl-N—[(R*)—{[15,19-difluoro-3,4-dihydro-2H,11H-10,6-(azeno)-12,16-(metheno)-1,5,11,13-benzodioxadiazacyclooctadecin-8-yl]methyl}(methyl)oxo-lambda6-sulfanylidene]-L-valinamide] | – | – | > 1000 nM | 1 to 9.9 nM | 100 to 999 nM | 1 to 9.9 nM | 100 to 999 nM | 1 to 9.9 nM | > 1000 nM | 1 to 9.9 nM | – |
